Experimental data published in PubChem BioAssay (NCI).
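Five compound concentrations were applied to cells in 96-well plates for 48 hours; endpoints were derived by simple linear interpolation of the resulting dose-response curve. Here, GI50 denotes the concentration required for 50% inhibition of growth. TGI: total growth inhibition.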

Key:
Experiment in all cases: inhibition of tumour cell growth, NCI panel, 48 h
[1] = system: 786-0 renal
[2] = system: A498 renal
[3] = system: A549 NSCLC
[4] = system: ACHN renal
[5] = system: BT-549 breast
[6] = system: CAKI-1 renal
[7] = system: CCRF-CEM leukemia
[8] = system: COLO 205 colon
[9] = system: EKVX NSCLC
[10] = system: HCC-2998 colon
[11] = system: HCT-116 colon
[12] = system: HCT-15 colon
[13] = system: HL-60(TB) leukemia
[14] = system: HOP-62 NSCLC
[15] = system: HOP-92 NSCLC
[16] = system: HS 578T breast
[17] = system: HT29 colon
[18] = system: IGROV1 ovarian
[19] = system: K-562 leukemia
[20] = system: KM12 colon
[21] = system: LOX IMVI melanoma
[22] = system: M14 melanoma
[23] = system: MALME-3M melanoma
[24] = system: MCF7 breast
[25] = system: MDA-MB-231 breast
[26] = system: MDA-MB-435
[27] = system: MOLT-4 leukemia
[28] = system: NCI-H226 lung
[29] = system: NCI-H23 lung
[30] = system: NCI-H460 lung
[31] = system: NCI-H522 lung
[32] = system: NCI/ADR-RES ovarian
[33] = system: OVCAR-3 ovarian
[34] = system: OVCAR-4 ovarian
[35] = system: OVCAR-5 ovarian
[36] = system: OVCAR-8 ovarian
[37] = system: PC-3 prostate
[38] = system: RPMI-8226 leukemia
[39] = system: RXF 393 renal
[40] = system: SF-268 CNS
[41] = system: SF-295 CNS
[42] = system: SF-539 CNS
[43] = system: SK-MEL-2 melanoma
[44] = system: SK-MEL-28 melanoma
[45] = system: SK-MEL-5 melanoma
[46] = system: SK-OV-3 ovarian
[47] = system: SN12C renal
[48] = system: SNB-19 CNS
[49] = system: SNB-75 CNS
[50] = system: SR leukemia
[51] = system: SW-620 colon
[52] = system: TK-10 renal
[53] = system: U251 CNS
[54] = system: UACC-257 melanoma
[55] = system: UACC-62 melanoma
[56] = system: UO-31 renal
[57] = system: DU-145 prostate

SMILES: C=C1C(=O)O[C@H]2[C@H]1CC/C(COC(=O)c1cc3cc(Cl)ccc3[nH]1)=C\CC[C@@]1(C)O[C@@H]21
- GI50 [1]: 1.51 µM
- TGI [1]: 2.91 µM
- GI50 [2]: 2.65 µM
- TGI [2]: 9.17 µM
- GI50 [3]: 1.69 µM
- TGI [3]: 3.31 µM
- GI50 [4]: 1.35 µM
- TGI [4]: 2.75 µM
- GI50 [5]: 1.31 µM
- TGI [5]: 3.2 µM
- GI50 [6]: 1.19 µM
- TGI [6]: 2.42 µM
- GI50 [7]: 0.394 µM
- TGI [7]: 1.61 µM
- GI50 [8]: 1.72 µM
- TGI [8]: 3.7 µM
- GI50 [9]: 1.4 µM
- TGI [9]: 2.91 µM
- GI50 [10]: 1.4 µM
- TGI [10]: 2.85 µM
- GI50 [11]: 0.707 µM
- TGI [11]: 2.06 µM
- GI50 [12]: 1 µM
- TGI [12]: 2.43 µM
- GI50 [13]: 0.44 µM
- TGI [13]: 2.3 µM
- GI50 [14]: 2.22 µM
- TGI [14]: 5.88 µM
- GI50 [15]: 1.25 µM
- TGI [15]: 2.76 µM
- GI50 [16]: 2.25 µM
- TGI [16]: 6.48 µM
- GI50 [17]: 1.33 µM
- TGI [17]: 3.12 µM
- GI50 [18]: 1.38 µM
- TGI [18]: 2.91 µM
- GI50 [19]: 1.14 µM
- TGI [19]: 4.14 µM
- GI50 [20]: 2.15 µM
- TGI [20]: 6.92 µM
- GI50 [21]: 0.813 µM
- TGI [21]: 2.08 µM
- GI50 [22]: 1.47 µM
- TGI [22]: 3.4 µM
- GI50 [23]: 1.63 µM
- TGI [23]: 3.33 µM
- GI50 [24]: 0.86 µM
- TGI [24]: 2.32 µM
- GI50 [25]: 1.32 µM
- TGI [25]: 2.85 µM
- GI50 [26]: 1.24 µM
- TGI [26]: 2.51 µM
- GI50 [27]: 0.557 µM
- TGI [27]: 3.37 µM
- GI50 [28]: 1.8 µM
- TGI [28]: 3.72 µM
- GI50 [29]: 1.63 µM
- TGI [29]: 3.68 µM
- GI50 [30]: 1.72 µM
- TGI [30]: 3.53 µM
- GI50 [31]: 1.59 µM
- TGI [31]: 3.92 µM
- GI50 [32]: 1.45 µM
- TGI [32]: 3.78 µM
- GI50 [33]: 1.25 µM
- TGI [33]: 2.7 µM
- GI50 [34]: 1.33 µM
- TGI [34]: 2.72 µM
- GI50 [35]: 1.53 µM
- TGI [35]: 3.28 µM
- GI50 [36]: 1.34 µM
- TGI [36]: 3.32 µM
- GI50 [37]: 2.42 µM
- TGI [37]: 6.58 µM
- GI50 [38]: 0.81 µM
- TGI [38]: 3.28 µM
- GI50 [39]: 1.38 µM
- TGI [39]: 2.72 µM
- GI50 [40]: 1.44 µM
- TGI [40]: 2.86 µM
- GI50 [41]: 3.18 µM
- TGI [41]: 16.5 µM
- GI50 [42]: 1.44 µM
- TGI [42]: 2.92 µM
- GI50 [43]: 1.73 µM
- TGI [43]: 3.59 µM
- GI50 [44]: 1.58 µM
- TGI [44]: 3.1 µM
- GI50 [45]: 1.91 µM
- TGI [45]: 3.54 µM
- GI50 [46]: 10.2 µM
- TGI [46]: 21.8 µM
- GI50 [47]: 1.7 µM
- TGI [47]: 3.57 µM
- GI50 [48]: 2.91 µM
- TGI [48]: 10.1 µM
- GI50 [49]: 0.576 µM
- TGI [49]: 2.07 µM
- GI50 [50]: 0.776 µM
- TGI [50]: 3.61 µM
- GI50 [51]: 1.4 µM
- TGI [51]: 3.37 µM
- GI50 [52]: 1.75 µM
- TGI [52]: 3.12 µM
- GI50 [53]: 1.75 µM
- TGI [53]: 3.32 µM
- GI50 [54]: 1.7 µM
- TGI [54]: 3.2 µM
- GI50 [55]: 1.67 µM
- TGI [55]: 3.27 µM
- GI50 [56]: 1.21 µM
- TGI [56]: 2.56 µM

SMILES: Cc1nc2sccn2c1-c1csc(Nc2cccc(Cl)c2C)n1
- GI50 [1]: 9.62 µM
- TGI [1]: 79.7 µM
- GI50 [2]: 1.45 µM
- TGI [2]: 17.5 µM
- GI50 [3]: 3.23 µM
- TGI [3]: 49.2 µM
- GI50 [4]: 6.84 µM
- TGI [4]: > 100 µM
- GI50 [5]: 3.44 µM
- TGI [5]: 20.5 µM
- GI50 [6]: 3.73 µM
- TGI [6]: 33.3 µM
- GI50 [7]: 4.01 µM
- TGI [7]: 82.1 µM
- GI50 [8]: 6.75 µM
- TGI [8]: 43.7 µM
- GI50 [57]: 8.45 µM
- TGI [57]: 72 µM
- GI50 [10]: 10.4 µM
- TGI [10]: 40.7 µM
- GI50 [11]: 4.67 µM
- TGI [11]: 20.1 µM
- GI50 [12]: 3.62 µM
- TGI [12]: 31.9 µM
- GI50 [13]: 3.43 µM
- TGI [13]: 19.3 µM
- GI50 [14]: 10.3 µM
- TGI [14]: > 100 µM
- GI50 [16]: 4.56 µM
- TGI [16]: 51.2 µM
- GI50 [17]: 3.29 µM
- TGI [17]: 14.7 µM
- GI50 [18]: 8.83 µM
- TGI [18]: 73.2 µM
- GI50 [19]: 2.12 µM
- TGI [19]: > 100 µM
- GI50 [20]: 3.79 µM
- TGI [20]: 21.8 µM
- GI50 [21]: 6.5 µM
- TGI [21]: 20.6 µM
- GI50 [22]: 5.04 µM
- TGI [22]: 28.5 µM
- GI50 [24]: 3.34 µM
- TGI [24]: 25.6 µM
- GI50 [25]: 3.62 µM
- TGI [25]: 20.2 µM
- GI50 [26]: 1.95 µM
- TGI [26]: 6.47 µM
- GI50 [27]: 4.22 µM
- TGI [27]: 26.8 µM
- GI50 [28]: 3.24 µM
- TGI [28]: 48.5 µM
- GI50 [30]: 3.58 µM
- TGI [30]: 20.3 µM
- GI50 [31]: 3.94 µM
- TGI [31]: 26.5 µM
- GI50 [32]: 3.45 µM
- TGI [32]: 45.2 µM
- GI50 [33]: 5.23 µM
- TGI [33]: 32.2 µM
- GI50 [34]: 3.05 µM
- TGI [34]: > 100 µM
- GI50 [35]: 24 µM
- TGI [35]: > 100 µM
- GI50 [36]: 5.84 µM
- TGI [36]: 47.1 µM
- GI50 [37]: 3.72 µM
- TGI [37]: 87.3 µM
- GI50 [38]: 3.83 µM
- TGI [38]: 33.3 µM
- GI50 [39]: 4.19 µM
- TGI [39]: 37.6 µM
- GI50 [40]: 11.9 µM
- TGI [40]: 74.4 µM
- GI50 [41]: 1.72 µM
- TGI [41]: 10.6 µM
- GI50 [42]: 6.61 µM
- TGI [42]: 25.3 µM
- GI50 [43]: 3.78 µM
- TGI [43]: 14 µM
- GI50 [44]: 5.67 µM
- TGI [44]: 44.1 µM
- GI50 [45]: 1.52 µM
- TGI [45]: 3.92 µM
- GI50 [46]: 21.2 µM
- TGI [46]: > 100 µM
- GI50 [47]: 6.06 µM
- TGI [47]: > 100 µM
- GI50 [48]: 12.6 µM
- TGI [48]: > 100 µM
- GI50 [49]: 3.19 µM
- TGI [49]: 28.3 µM
- GI50 [50]: 3.46 µM
- TGI [50]: 53.1 µM
- GI50 [51]: 3.91 µM
- TGI [51]: 24.3 µM
- GI50 [53]: 4.37 µM
- TGI [53]: 19.6 µM
- GI50 [54]: 2.52 µM
- TGI [54]: 12.5 µM
- GI50 [55]: 3.93 µM
- TGI [55]: 19.8 µM
- GI50 [56]: 3.05 µM
- TGI [56]: 23.7 µM
